Assay results published in patent US20230278972A1, “SUBSTITUTED HALOALKYL SULFONANILIDE HERBICIDES” (FMC Corporation, priority 2020, published 2023).

Assays:
Type in all cases: in vivo
[1] = test system: Foxtail, Giant (giant foxtail, Setaria faberi); assay: Test A postemergence, Foxtail, Giant; settings: Postemergence; for Foxtail, Giant plant response rating: 500 g ai/ha, visual injury vs untreated controls after approx. 10 days
Summary of the method: (§1)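 After sowing into a sand-amended loam, pots for the preemergence test were treated by spraying directly onto soil. In parallel, seedlings at the one- to two-leaf stage and 2 to 10 cm tall were treated postemergence with the identical surfactant-containing formulation.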

[2] = test system: wheat (Triticum aestivum); assay: Test A postemergence, wheat; settings: Postemergence; for Wheat plant response rating: 500 g ai/ha, visual injury vs untreated controls after approx. 10 days
Summary of the method: (§2)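 Preemergence: seeded pots of loam plus sand received a directed soil spray. Postemergence: seedlings at one to two leaves, 2 to 10 cm high, were oversprayed. Each compound was formulated in a non-phytotoxic solvent mix that included a surfactant.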

[3] = test system: barnyardgrass (Echinochloa crus-galli); assay: Test A postemergence, barnyardgrass; settings: Postemergence, 0 to 100 scale (0 no effect, 100 complete control); for Barnyardgrass plant response rating: 500 g ai/ha, visual injury vs untreated controls after approx. 10 days
Summary of the method: as §2

[4] = test system: Foxtail, Giant (giant foxtail, Setaria faberi); assay: Test A preemergence, Foxtail, Giant; settings: Preemergence; for Foxtail, Giant plant response rating: 125 g ai/ha, visual injury on 0 to 100 scale (0 no effect, 100 complete control), approximately 10 days; for Plant response rating, Foxtail, Giant: 0 to 100 scale (0 no effect, 100 complete control)
Summary of the method: as §1

[5] = test system: ragweed (common ragweed, Ambrosia artemisiifolia); assay: Test A postemergence, ragweed; settings: Postemergence; for Ragweed plant response rating: 500 g ai/ha, visual injury vs untreated controls after approx. 10 days
Summary of the method: as §1

[6] = test system: pigweed (Amaranthus retroflexus); assay: Test A preemergence, pigweed; settings: for Pigweed plant response rating: 125 g ai/ha, visual injury on 0 to 100 scale (0 no effect, 100 complete control), approximately 10 days; for Plant response rating, Pigweed: 0 to 100 scale (0 no effect, 100 complete control)
Summary of the method: as §2

[7] = test system: galium (catchweed bedstraw, Galium aparine); assay: Test A postemergence, galium; settings: Postemergence; for Galium plant response rating: 500 g ai/ha, visual injury vs untreated controls after approx. 10 days
Summary of the method: as §2

[8] = test system: ragweed (common ragweed, Ambrosia artemisiifolia); assay: Test A preemergence, ragweed; settings: Preemergence; for Ragweed plant response rating: 125 g ai/ha, visual injury on 0 to 100 scale (0 no effect, 100 complete control), approximately 10 days; for Plant response rating, Ragweed: 0 to 100 scale (0 no effect, 100 complete control)
Summary of the method: as §1

kochia (Bassia scoparia) [9] = assay: Test A preemergence, kochia; settings: Preemergence; for Kochia plant response rating: 125 g ai/ha, visual injury on 0 to 100 scale (0 no effect, 100 complete control), approximately 10 days; for Plant response rating, Kochia: 0 to 100 scale (0 no effect, 100 complete control)
Summary of the method: as §1

[10] = test system: Ryegrass, Italian (Italian ryegrass, Lolium multiflorum); assay: Test A preemergence, Ryegrass, Italian; settings: Preemergence; for Ryegrass, Italian plant response rating: 125 g ai/ha, visual injury on 0 to 100 scale (0 no effect, 100 complete control), approximately 10 days; for Plant response rating, Ryegrass, Italian: 0 to 100 scale (0 no effect, 100 complete control)
Summary of the method: as §1

[11] = test system: barnyardgrass (Echinochloa crus-galli); assay: Test A preemergence, barnyardgrass; settings: Preemergence; for Barnyardgrass plant response rating: 125 g ai/ha, visual injury on 0 to 100 scale (0 no effect, 100 complete control), approximately 10 days; for Plant response rating, Barnyardgrass: 0 to 100 scale (0 no effect, 100 complete control)
Summary of the method: as §1

kochia (Bassia scoparia) [12] = assay: Test A postemergence, kochia; settings: Postemergence; for Kochia plant response rating: 500 g ai/ha, visual injury vs untreated controls after approx. 10 days
Summary of the method: as §1

[13] = test system: blackgrass (Alopecurus myosuroides); assay: Test A postemergence, blackgrass; settings: Postemergence, 0 to 100 scale (0 no effect, 100 complete control); for Blackgrass plant response rating: 500 g ai/ha, visual injury vs untreated controls after approx. 10 days
Summary of the method: as §1

[14] = test system: Ryegrass, Italian (Italian ryegrass, Lolium multiflorum); assay: Test A postemergence, Ryegrass, Italian; settings: Postemergence; for Ryegrass, Italian plant response rating: 500 g ai/ha, visual injury vs untreated controls after approx. 10 days
Summary of the method: as §1

corn (Zea mays) = assay: Test A postemergence, corn; settings: Postemergence; for Corn plant response rating: 500 g ai/ha, visual injury vs untreated controls after approx. 10 days
Summary of the method: as §1

[15] = test system: pigweed (Amaranthus retroflexus); assay: Test A postemergence, pigweed; settings: Postemergence; for Pigweed plant response rating: 500 g ai/ha, visual injury vs untreated controls after approx. 10 days
Summary of the method: as §1

[16] = 125 g ai/ha, visual injury approx. 10 days, 0 to 100 scale (0 no effect, 100 complete control)
[17] = 0 to 100 scale (0 no effect, 100 complete control)
[18] = 125 g ai/ha, visual injury approx. 10 days
[19] = 31 g ai/ha, visual injury on 0 to 100 scale (0 no effect, 100 complete control), approx. 10 days
[20] = 125 g ai/ha, 0 to 100 scale (0 no effect, 100 complete control)
[21] = 31 g ai/ha, visual injury, approx. 10 days
[22] = 31 g ai/ha, 0 to 100 scale (0 no effect, 100 complete control)

COC(=O)N(c1cc(-c2ccnn(C)c2=O)c(C)cc1C)S(=O)(=O)C(F)(F)F [Compound 53]
Plant response rating, Foxtail, Giant [1, 16]: 0
Foxtail, Giant plant response rating [1, 17]: 0
Plant response rating, Wheat [2, 16]: 0
Wheat plant response rating [2, 17]: 0
Plant response rating, Barnyardgrass [3, 18]: 0
Barnyardgrass plant response rating [3]: 0
Foxtail, Giant plant response rating [4]: 0
Plant response rating, Foxtail, Giant ([4]; 500 g ai/ha): 0
Plant response rating, Ragweed [5, 16]: 20
Ragweed plant response rating [5, 17]: 20
Pigweed plant response rating [6]: 0
Plant response rating, Pigweed ([6]; 500 g ai/ha): 0
Plant response rating, Galium [7, 16]: 50
Galium plant response rating [7, 17]: 80
Ragweed plant response rating [8]: 0
Plant response rating, Ragweed ([8]; 500 g ai/ha): 40
Kochia plant response rating (kochia (Bassia scoparia) [9]): 0
Plant response rating, Kochia (kochia (Bassia scoparia) [9]; 500 g ai/ha): 0
Ryegrass, Italian plant response rating [10]: 0
Plant response rating, Ryegrass, Italian ([10]; 500 g ai/ha): 0
Barnyardgrass plant response rating [11]: 0
Plant response rating, Barnyardgrass ([11]; 500 g ai/ha): 0
Plant response rating, Kochia (kochia (Bassia scoparia) [12]; [16]): 0
Kochia plant response rating (kochia (Bassia scoparia) [12]; [17]): 0
Plant response rating, Blackgrass [13, 18]: 0
Blackgrass plant response rating [13]: 0
Plant response rating, Ryegrass, Italian [14, 16]: 0
Ryegrass, Italian plant response rating [14, 17]: 0
Plant response rating, Corn (corn (Zea mays); [16]): 0
Corn plant response rating (corn (Zea mays); [17]): 0
Plant response rating, Pigweed [15, 16]: 0
Pigweed plant response rating [15, 17]: 0

Cc1cc(C)c(N(COC(=O)C2CCCCC2)S(=O)(=O)C(F)(F)F)cc1C1=NOC2(CCCC2)C1 [Compound 148]
Plant response rating, Foxtail, Giant [1, 19]: 0
Plant response rating, Foxtail, Giant [1, 20]: 0
Plant response rating, Wheat [2, 19]: 0
Plant response rating, Wheat [2, 20]: 0
Plant response rating, Barnyardgrass ([3]; 31 g ai/ha): 0
Plant response rating, Barnyardgrass ([3]; 125 g ai/ha): 10
Plant response rating, Foxtail, Giant [4, 21]: 40
Foxtail, Giant plant response rating [4]: 100
Plant response rating, Ragweed [5, 19]: 0
Plant response rating, Ragweed [5, 20]: 0
Plant response rating, Pigweed [6, 21]: 30
Pigweed plant response rating [6]: 100
Plant response rating, Galium [7, 19]: 0
Plant response rating, Galium [7, 20]: 20
Plant response rating, Ragweed [8, 21]: 0
Ragweed plant response rating [8]: 20
Plant response rating, Kochia (kochia (Bassia scoparia) [9]; [21]): 20
Kochia plant response rating (kochia (Bassia scoparia) [9]): 30
Plant response rating, Ryegrass, Italian [10, 21]: 30
Ryegrass, Italian plant response rating [10]: 100
Plant response rating, Barnyardgrass [11, 21]: 20
Barnyardgrass plant response rating [11]: 80
Plant response rating, Kochia (kochia (Bassia scoparia) [12]; [19]): 0
Plant response rating, Kochia (kochia (Bassia scoparia) [12]; [20]): 20
Plant response rating, Blackgrass ([13]; 31 g ai/ha): 0
Plant response rating, Blackgrass ([13]; 125 g ai/ha): 0
Plant response rating, Ryegrass, Italian [14, 19]: 0
Plant response rating, Ryegrass, Italian [14, 20]: 0
Plant response rating, Corn (corn (Zea mays); [19]): 0
Plant response rating, Corn (corn (Zea mays); [20]): 0
Plant response rating, Pigweed [15, 19]: 40
Plant response rating, Pigweed [15, 20]: 40

Cc1cc(Cl)c(C2=NOC(C)(C)C2)cc1N(S(=O)(=O)C(F)(F)F)S(=O)(=O)C(F)(F)F [Compound 184]
Plant response rating, Foxtail, Giant [1, 20]: 0
Foxtail, Giant plant response rating [1, 17]: 0
Plant response rating, Wheat [2, 20]: 0
Wheat plant response rating [2, 17]: 0
Plant response rating, Barnyardgrass ([3]; 125 g ai/ha): 20
Barnyardgrass plant response rating [3]: 50
Foxtail, Giant plant response rating [4]: 30
Plant response rating, Foxtail, Giant ([4]; 500 g ai/ha): 90
Plant response rating, Ragweed [5, 20]: 40
Ragweed plant response rating [5, 17]: 70
Pigweed plant response rating [6]: 70
Plant response rating, Pigweed ([6]; 500 g ai/ha): 100
Plant response rating, Galium [7, 20]: 80
Galium plant response rating [7, 17]: 90
Ragweed plant response rating [8]: 80
Plant response rating, Ragweed ([8]; 500 g ai/ha): 90
Kochia plant response rating (kochia (Bassia scoparia) [9]): 0
Plant response rating, Kochia (kochia (Bassia scoparia) [9]; 500 g ai/ha): 0
Ryegrass, Italian plant response rating [10]: 30
Plant response rating, Ryegrass, Italian ([10]; 500 g ai/ha): 50
Barnyardgrass plant response rating [11]: 70
Plant response rating, Barnyardgrass ([11]; 500 g ai/ha): 100
Plant response rating, Kochia (kochia (Bassia scoparia) [12]; [20]): 0
Kochia plant response rating (kochia (Bassia scoparia) [12]; [17]): 30
Plant response rating, Blackgrass ([13]; 125 g ai/ha): 0
Blackgrass plant response rating [13]: 20
Plant response rating, Ryegrass, Italian [14, 20]: 0
Ryegrass, Italian plant response rating [14, 17]: 0
Plant response rating, Corn (corn (Zea mays); [20]): 0
Corn plant response rating (corn (Zea mays); [17]): 0
Plant response rating, Pigweed [15, 20]: 20
Pigweed plant response rating [15, 17]: 40

CSC1CCCN(C(=O)c2cc(NS(=O)(=O)C(F)(F)F)c(C)cc2C)C1 (centres unmarked) [Compound 3]
Plant response rating, Foxtail, Giant [1, 22]: 0
Plant response rating, Foxtail, Giant [1, 16]: 0
Plant response rating, Wheat [2, 22]: 30
Plant response rating, Wheat [2, 16]: 50
Plant response rating, Barnyardgrass ([3]; 31 g ai/ha): 0
Plant response rating, Barnyardgrass [3, 18]: 30
Plant response rating, Foxtail, Giant [4, 21]: 20
Foxtail, Giant plant response rating [4]: 50
Plant response rating, Ragweed [5, 22]: 40
Plant response rating, Ragweed [5, 16]: 80
Plant response rating, Pigweed [6, 21]: 90
Pigweed plant response rating [6]: 100
Plant response rating, Galium [7, 22]: 90
Plant response rating, Galium [7, 16]: 90
Plant response rating, Ragweed [8, 21]: 0
Ragweed plant response rating [8]: 70
Plant response rating, Kochia (kochia (Bassia scoparia) [9]; [21]): 30
Kochia plant response rating (kochia (Bassia scoparia) [9]): 80
Plant response rating, Ryegrass, Italian [10, 21]: 20
Ryegrass, Italian plant response rating [10]: 70
Plant response rating, Barnyardgrass [11, 21]: 0
Barnyardgrass plant response rating [11]: 50
Plant response rating, Kochia (kochia (Bassia scoparia) [12]; [22]): 10
Plant response rating, Kochia (kochia (Bassia scoparia) [12]; [16]): 40
Plant response rating, Blackgrass ([13]; 31 g ai/ha): 0
Plant response rating, Blackgrass [13, 18]: 0
Plant response rating, Ryegrass, Italian [14, 22]: 0
Plant response rating, Ryegrass, Italian [14, 16]: 0
Plant response rating, Corn (corn (Zea mays); [22]): 20
Plant response rating, Corn (corn (Zea mays); [16]): 30
Plant response rating, Pigweed [15, 22]: 70
Plant response rating, Pigweed [15, 16]: 90
